Results from ChEMBL document CHEMBL4152220, “Discovery of new benzensulfonamide derivatives as tripedal STAT3 inhibitors” (Eur J Med Chem, 2018).
The source made the active and inactive calls. The rule behind the calls is not given here.

Legend:
[1] = biological target: Signal transducer and activator of transcription 3 (Homo sapiens) (UniProt P40763); experiment: Inhibition of STAT3 phosphorylation at Y705 residue in human HCT116 cells at 10 uM after 20 hrs by Western blot analysis; type: cell-based
Chain of Signal transducer and activator of transcription 3 (Homo sapiens) (P40763 whole entry): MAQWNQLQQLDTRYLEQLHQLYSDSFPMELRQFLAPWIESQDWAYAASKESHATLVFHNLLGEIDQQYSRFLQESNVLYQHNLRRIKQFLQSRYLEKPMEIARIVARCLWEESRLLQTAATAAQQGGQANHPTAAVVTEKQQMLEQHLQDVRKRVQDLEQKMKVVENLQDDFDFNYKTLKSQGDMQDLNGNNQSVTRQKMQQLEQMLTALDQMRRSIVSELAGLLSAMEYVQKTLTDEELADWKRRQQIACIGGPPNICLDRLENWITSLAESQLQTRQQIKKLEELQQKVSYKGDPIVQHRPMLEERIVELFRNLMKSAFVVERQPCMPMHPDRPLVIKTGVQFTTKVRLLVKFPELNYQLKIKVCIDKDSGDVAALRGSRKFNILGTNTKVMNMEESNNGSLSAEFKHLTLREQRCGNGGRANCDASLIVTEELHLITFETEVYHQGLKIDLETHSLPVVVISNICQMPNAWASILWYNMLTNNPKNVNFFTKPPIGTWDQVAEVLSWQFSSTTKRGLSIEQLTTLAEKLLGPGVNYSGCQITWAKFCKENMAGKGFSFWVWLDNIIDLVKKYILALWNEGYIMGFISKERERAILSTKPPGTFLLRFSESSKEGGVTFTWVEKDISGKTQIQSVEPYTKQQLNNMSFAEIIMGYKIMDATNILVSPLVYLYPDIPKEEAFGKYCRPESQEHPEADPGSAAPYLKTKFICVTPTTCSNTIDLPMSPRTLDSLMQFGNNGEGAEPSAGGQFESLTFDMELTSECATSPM

[2] = biological target: Signal transducer and activator of transcription 3 (Homo sapiens) (UniProt P40763); experiment: Inhibition of STAT3 dimerization in human HCT116 cells assessed as inhibition of STAT3-STAT3 DNA binding activity at 4 to 12 uM incubated for 20 hrs by EMSA; type: cell-based
[3] = biological target: T1, Signal transducer and activator of transcription 1-alpha/beta (Homo sapiens) (UniProt P42224); experiment: Inhibition of STAT1 phosphorylation at Y701 residue in human HCT116 cells at 4 to 12 uM after 20 hrs by Western blot analysis; type: cell-based
T1 sequence (whole entry): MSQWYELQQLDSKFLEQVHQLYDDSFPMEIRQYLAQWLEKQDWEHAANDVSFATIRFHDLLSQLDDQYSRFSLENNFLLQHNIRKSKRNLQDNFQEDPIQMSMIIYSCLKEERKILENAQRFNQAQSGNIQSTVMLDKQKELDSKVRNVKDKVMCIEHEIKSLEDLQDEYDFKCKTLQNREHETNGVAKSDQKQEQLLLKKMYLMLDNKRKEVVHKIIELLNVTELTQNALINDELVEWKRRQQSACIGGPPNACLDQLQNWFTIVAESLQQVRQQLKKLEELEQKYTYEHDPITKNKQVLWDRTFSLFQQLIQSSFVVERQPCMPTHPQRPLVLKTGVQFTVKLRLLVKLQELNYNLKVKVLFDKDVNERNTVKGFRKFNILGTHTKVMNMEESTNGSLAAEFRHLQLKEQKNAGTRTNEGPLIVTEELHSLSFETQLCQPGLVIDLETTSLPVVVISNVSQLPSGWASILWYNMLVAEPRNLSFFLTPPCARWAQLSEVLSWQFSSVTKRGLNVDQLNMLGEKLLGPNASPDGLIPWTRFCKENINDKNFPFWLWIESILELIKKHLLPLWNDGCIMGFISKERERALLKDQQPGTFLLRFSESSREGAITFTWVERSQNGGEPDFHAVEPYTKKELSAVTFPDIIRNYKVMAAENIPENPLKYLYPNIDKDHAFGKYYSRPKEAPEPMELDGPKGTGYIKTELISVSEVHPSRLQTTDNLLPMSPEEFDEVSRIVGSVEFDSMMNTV

[4] = biological target: T2, Signal transducer and activator of transcription 5A (Homo sapiens) (UniProt P42229); experiment: Inhibition of STAT5 phosphorylation at Y694 residue in human HCT116 cells at 4 to 12 uM after 20 hrs by Western blot analysis; type: cell-based
T2 sequence (whole entry): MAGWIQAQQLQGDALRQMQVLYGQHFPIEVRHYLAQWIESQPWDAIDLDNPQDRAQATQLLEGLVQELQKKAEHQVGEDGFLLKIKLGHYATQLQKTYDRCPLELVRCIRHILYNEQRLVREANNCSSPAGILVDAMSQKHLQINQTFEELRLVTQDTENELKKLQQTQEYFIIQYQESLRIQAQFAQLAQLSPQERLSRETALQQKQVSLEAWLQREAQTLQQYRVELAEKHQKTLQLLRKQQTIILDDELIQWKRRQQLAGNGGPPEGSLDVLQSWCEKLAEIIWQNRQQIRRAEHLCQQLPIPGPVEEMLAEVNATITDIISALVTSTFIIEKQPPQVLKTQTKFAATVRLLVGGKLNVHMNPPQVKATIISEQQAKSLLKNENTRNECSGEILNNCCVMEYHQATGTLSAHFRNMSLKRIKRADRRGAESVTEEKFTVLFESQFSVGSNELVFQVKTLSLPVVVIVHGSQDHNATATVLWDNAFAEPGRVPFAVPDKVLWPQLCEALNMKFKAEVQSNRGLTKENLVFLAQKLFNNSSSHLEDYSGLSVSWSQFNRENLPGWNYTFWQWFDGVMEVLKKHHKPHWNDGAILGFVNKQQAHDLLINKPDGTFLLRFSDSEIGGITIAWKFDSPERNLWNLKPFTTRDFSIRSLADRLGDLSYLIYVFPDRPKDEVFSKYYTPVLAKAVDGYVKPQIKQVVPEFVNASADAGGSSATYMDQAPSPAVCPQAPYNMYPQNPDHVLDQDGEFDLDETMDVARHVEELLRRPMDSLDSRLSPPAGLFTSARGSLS

[5] = biological target: Proto-oncogene tyrosine-protein kinase Src (Homo sapiens) (UniProt P12931); experiment: Inhibition of Src phosphorylation in human HCT116 cells at 4 to 12 uM after 20 hrs by Western blot analysis; type: cell-based
Chain of Proto-oncogene tyrosine-protein kinase Src (Homo sapiens) (P12931 2-536 limits assumed): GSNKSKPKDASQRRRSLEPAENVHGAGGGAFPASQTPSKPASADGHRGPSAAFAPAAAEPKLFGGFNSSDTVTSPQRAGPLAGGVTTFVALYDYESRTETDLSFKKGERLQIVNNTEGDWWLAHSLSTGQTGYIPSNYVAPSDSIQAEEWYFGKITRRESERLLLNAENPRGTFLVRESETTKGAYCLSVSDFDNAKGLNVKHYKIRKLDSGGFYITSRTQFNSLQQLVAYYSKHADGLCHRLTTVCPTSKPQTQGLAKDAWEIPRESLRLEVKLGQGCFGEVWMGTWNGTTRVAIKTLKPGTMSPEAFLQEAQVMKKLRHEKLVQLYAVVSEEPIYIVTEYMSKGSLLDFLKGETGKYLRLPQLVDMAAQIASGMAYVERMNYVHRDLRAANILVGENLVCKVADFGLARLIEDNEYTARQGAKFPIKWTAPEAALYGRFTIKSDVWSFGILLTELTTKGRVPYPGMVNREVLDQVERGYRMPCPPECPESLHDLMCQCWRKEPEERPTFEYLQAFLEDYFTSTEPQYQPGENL

HCT-116 [6] = experiment: Induction of apoptosis in human HCT116 cells assessed as early apoptotic cells at 4 uM after 20 hrs by Annexin V-APC/7-AAD staining-based flow cytometric analysis (reference value: 3.1%); type: functional
HCT-116 [7] = experiment: Induction of apoptosis in human HCT116 cells assessed as viable cells at 4 uM after 20 hrs by Annexin V-APC/7-AAD staining-based flow cytometric analysis (reference value: 96.8%); type: functional; settings: HCT-116, 20 h, read-out: Activity
HCT-116 [8] = experiment: Induction of apoptosis in human HCT116 cells assessed as necrotic cells at 12 uM after 20 hrs by Annexin V-APC/7-AAD staining-based flow cytometric analysis (reference value: 0.1%); type: functional
HCT-116 [9] = experiment: Induction of apoptosis in human HCT116 cells after 20 hrs by Annexin V-APC/7-AAD staining-based flow cytometric analysis; type: functional, cell-based
HCT-116 [10] = experiment: Antitumor activity against human HCT116 cells xenografted in nude mouse assessed as decrease in tumor weight at 10 mg/kg, ip dosed daily for 15 days relative to untreated control; type: functional; set-up: scale not given: the % may be the effect or the level left
HCT-116 [11] = experiment: Antitumor activity against human HCT116 cells xenografted in nude mouse assessed as decrease in tumor weight at 20 mg/kg, ip dosed daily for 15 days relative to untreated control; type: functional; set-up: scale not given: the % may be the effect or the level left
Mus musculus [12] = experiment: In vivo inhibition of STAT3 in nude mouse xenografted with human HCT116 cells assessed as reduction in p-STAT3 (Y705) level at 10 to 20 mg/kg, ip dosed daily for 15 days by Western blot relative to untreated control; type: functional, organism-based
Mus musculus [13] = experiment: Toxicity in nude mouse xenografted with human HCT116 cells assessed as change in body weight at 10 to 20 mg/kg, ip dosed daily for 15 days; type: organism-based; settings: in vivo, 360 h

## CC(C)c1ccc(CN(Cc2c(F)c(F)c(F)c(F)c2F)c2cccc(S(N)(=O)=O)c2)cc1
[1]
  inhibition: Active
[2]
  inhibition: Active
[3]
  inhibition: inactive
[4]
  inhibition: inactive
[5]
  inhibition: inactive
HCT-116 [6]
  Activity: 7%
HCT-116 [7]
  viability at 4 µM: 92.8%
HCT-116 [8]
  Activity: 0.5%
HCT-116 [9]
  Activity: Dose-dependent effect
HCT-116 [10]
  Activity: 41.3%
HCT-116 [11]
  Activity: 56.84%
Mus musculus [12]
  inhibition: Active
Mus musculus [13]
  Activity: Non-Toxic
